Columns and labels:
Assay in all cases: relative viability (nuclei count vs DMSO), 5 days (fraction); higher = more cells survive
[1] = compound: CCC1=CN=CN=C1N2CCN(CC2)CC3=NC4=C(N3)C=C(C=C4)C(F)(F)F + CS(=O)(=O)N1CCN(Cc2cc3nc(-c4cccc5[nH]ncc45)nc(N4CCOCC4)c3s2)CC1 [Pictilisib] (partner 1 µM)
Procedure, shortened: (§1)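 Lung cancer cell lines in 1536-well plates got either a single drug or a fixed anchor-drug dose together with five library-drug doses (not always all listed) in √10 steps, by pin tool, on the day after seeding. Nuclei were counted after 5 days, and relative viability is the treated-to-vehicle ratio of nuclei counts. Values are medians of duplicate plates.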

[2] = compound: N=C1NC(=O)/C(=C/c2ccc(O)cc2)S1 [Mirin] + CS(=O)(=O)N1CCN(Cc2cc3nc(-c4cccc5[nH]ncc45)nc(N4CCOCC4)c3s2)CC1 [Pictilisib] (partner 1 µM)
Procedure, shortened: as §1

[3] = compound: CCn1c(-c2nonc2N)nc2cnc(Oc3cccc(NC(=O)c4ccc(OCCN5CCOCC5)cc4)c3)cc21 + CS(=O)(=O)N1CCN(Cc2cc3nc(-c4cccc5[nH]ncc45)nc(N4CCOCC4)c3s2)CC1 [Pictilisib] (partner 1 µM)
Procedure, shortened: as §1

[4] = compound: CCC1=CN=CN=C1N2CCN(CC2)CC3=NC4=C(N3)C=C(C=C4)C(F)(F)F + Nc1ncn([C@H]2C[C@H](O)[C@@H](CO)O2)c(=O)n1 [Decitabine] (partner 2 µM)
Procedure, shortened: as §1

Cell Line | relative viability ([1]; first compound 0.04 µM) | relative viability ([1]; first compound 0.1265 µM) | relative viability ([1]; first compound 0.4 µM) | relative viability ([1]; first compound 1.265 µM) | relative viability ([1]; first compound 4 µM) | relative viability ([2]; first compound 0.25 µM) | relative viability ([2]; first compound 0.7906 µM) | relative viability ([2]; first compound 2.5 µM) | relative viability ([2]; first compound 7.906 µM) | relative viability ([2]; first compound 25 µM) | relative viability ([3]; first compound 0.04 µM) | relative viability ([3]; first compound 0.1265 µM) | relative viability ([3]; first compound 0.4 µM) | relative viability ([3]; first compound 1.265 µM) | relative viability ([3]; first compound 4 µM) | relative viability ([4]; first compound 0.04 µM) | relative viability ([4]; first compound 0.1265 µM) | relative viability ([4]; first compound 0.4 µM) | relative viability ([4]; first compound 1.265 µM) | relative viability ([4]; first compound 4 µM)
NCI-H2170 | 0.303 | 0.304 | 0.274 | 0.289 | 0.325 | 0.327 | 0.217 | 0.281 | 0.247 | 0.253 | 0.279 | 0.27 | 0.229 | 0.247 | 0.258 | 0.44 | 0.462 | 0.451 | 0.433 | 0.461
HCC-366 | 0.242 | 0.124 | 0.133 | – | 0.134 | 0.169 | 0.17 | 0.158 | 0.122 | 0.0892 | 0.124 | 0.151 | 0.0942 | 0.0463 | 0.0657 | 0.356 | 0.288 | 0.317 | 0.307 | 0.353
NCI-H2405 | 0.486 | 0.379 | 0.43 | – | 0.575 | 0.465 | 0.51 | 0.401 | 0.307 | 0.317 | 0.454 | 0.23 | 0.15 | 0.261 | 0.171 | 0.748 | 0.715 | 0.711 | – | 0.795
COR-L 105 | 0.372 | 0.376 | 0.385 | 0.247 | 0.464 | 0.407 | 0.263 | 0.397 | 0.373 | 0.326 | 0.361 | 0.368 | 0.277 | 0.17 | 0.249 | 0.665 | 0.652 | 0.698 | 0.541 | 0.669
201T | 0.708 | 0.652 | 0.658 | 0.514 | 0.801 | 0.704 | 0.668 | 0.614 | 0.753 | 0.67 | 0.732 | 0.67 | 0.586 | 0.631 | 0.743 | 0.823 | 0.813 | 0.879 | 0.869 | 0.819
NCI-H2228 | 0.383 | 0.397 | 0.297 | 0.309 | 0.436 | 0.397 | 0.396 | 0.37 | 0.356 | 0.346 | 0.607 | 0.3 | 0.229 | 0.605 | 0.254 | – | – | – | – | –
LC-2-ad | 0.459 | 0.512 | 0.424 | 0.328 | 0.326 | 0.554 | 0.298 | 0.497 | 0.216 | 0.356 | 0.683 | 0.729 | 0.372 | 0.451 | 0.386 | 0.929 | 0.816 | 0.792 | 0.774 | 0.768
NCI-H2085 | 0.468 | 0.426 | 0.412 | 0.296 | 0.429 | 0.417 | 0.398 | 0.484 | 0.462 | 0.468 | 0.53 | 0.692 | 0.664 | 0.596 | 0.524 | 0.487 | 0.526 | 0.557 | 0.476 | 0.573
NCI-H358 | 0.4 | 0.282 | 0.349 | 0.289 | 0.359 | 0.357 | 0.288 | 0.415 | 0.315 | 0.323 | 0.339 | 0.401 | 0.316 | 0.384 | 0.216 | 0.206 | 0.204 | 0.158 | 0.174 | 0.217
H3255 | 0.5 | 0.507 | 0.446 | 0.423 | 0.455 | 0.516 | 0.444 | 0.493 | 0.306 | 0.564 | 0.63 | 0.593 | 0.517 | 0.473 | 0.52 | 0.578 | 0.555 | 0.594 | 0.52 | 0.55
NCI-H23 | 0.58 | 0.439 | 0.41 | 0.348 | 0.432 | 0.483 | – | 0.385 | 0.367 | 0.373 | 0.721 | 0.613 | – | 0.433 | 0.343 | 0.288 | 0.31 | 0.282 | 0.252 | 0.358
CAL-12T | – | 0.541 | 0.295 | 0.314 | 0.361 | 0.535 | – | 0.561 | – | 0.368 | 0.486 | 0.549 | 0.525 | – | 0.408 | – | – | – | – | –
A-427 | 0.675 | 0.685 | 0.682 | 0.637 | 0.574 | 0.749 | – | 0.821 | 0.603 | 0.783 | 0.879 | 0.674 | 0.666 | 0.526 | 0.402 | 0.55 | 0.548 | 0.556 | 0.535 | 0.599
HARA | 0.311 | 0.326 | 0.321 | 0.302 | 0.471 | 0.367 | 0.353 | 0.437 | 0.335 | 0.169 | 0.345 | 0.345 | 0.157 | 0.148 | 0.0855 | 0.424 | 0.505 | 0.533 | 0.508 | 0.512
NCI-H1793 | 0.329 | 0.304 | 0.428 | – | 0.328 | 0.387 | 0.327 | 0.236 | 0.311 | 0.482 | 0.336 | 0.413 | 0.295 | 0.312 | 0.328 | 0.479 | 0.484 | 0.436 | 0.428 | 0.432
NCI-H2009 | 0.821 | 0.824 | 0.826 | 0.514 | 0.544 | 0.919 | 0.706 | 0.871 | 0.66 | 0.6 | 0.971 | 0.774 | 0.629 | 0.461 | 0.348 | 0.381 | 0.348 | 0.361 | 0.37 | 0.373
ABC-1 | 0.587 | 0.955 | 0.69 | 0.665 | 0.646 | 0.923 | 0.501 | 0.753 | 0.695 | 0.302 | 1.34 | 0.599 | 0.494 | 0.442 | 0.401 | – | – | 1.04 | 0.84 | 0.887

— the supplement of paper PMC10307832
